Converted amounts (≈) assume the structure as drawn. Read-outs that look alike come from different tables or passages of the source.

One may read the IC50 as the point on the concentration scale where inhibition reaches its midpoint.

Data set [1] relates to TNFα. As to the kind of experiment: Inhibition of TNFα production in LPS-stimulated THP-1 cells (ELISA). The class given is cell-based, human. Conditions: Homo sapiens; Table 2; LPS-stimulated THP-1, 6 h post-stimulation. Here is the method:
(§1) Cell line. THP-1 cells (human monocyte) were maintained in RPMI 1640 medium containing 25 mM Hepes buffer, 2 mM L-glutamine, 50 units of penicillin per mL, 50 μg of streptomycin sulfate per mL, and 10% heat-inactivated fetal bovine serum (FBS) in a humidified incubator containing 5% CO2. The cells were split 1:4 weekly as recommended by the American Type Culture Collection (ATCC).
(§2) TNFα assay. Varying concentrations of the test compound or control compound were added to THP-1 cells plated at a density of 1×10^6cells/mL in 600 μL of 10% RPMI in a 48 well plate. After one hour the cells were stimulated with 0.5 μg of lipopolysaccharide (LPS; Sigma, lot number 43H40491) per mL. Six hours post-stimulation supernatants were collected and assayed for TNFα or IL-1β production using a commercially available cytokine detection ELISA (Enzyme Linked Immunosorbent Assay) kit according to the suppliers instructions. A suitable assay kit may be obtained from Biosource, or R and D systems. A novel xanthine analog, HWA-3138, having the structure (as shown below) was used as the control compound (30) in this study to monitor the response of the THP-l cells. Xanthine analogs are known inhibitors of TNFα but not IL-1β. In the following experiments compound HWA-3138 was used as a positive control. [drawing 58]
Time of Addition. Varying concentrations of test or control compounds were added to THP-1 cells (1×10^6 cells/mL) at different time points post-stimulation using 0.5 μg of LPS (Sigma, lot number 43H40491) per mL in 300 μL of 10% RPMI in a 48 well plate. Six hours post-stimulationsupernatants were collected and assayed for TNFα or IL-1β production using a Biosource cytokine detection ELISA (Enzyme Linked Immunosorbent Assay) kit according to the supplier's instructions.
The membrane bound TNFα was separated from the free TNFα in the culture medium at 6 hours post-LPS stimulation as follows: The corresponding cells were centrifuged at 3500 rpm (~1,000×g) for 6 min. The supernatants were removed and the cell pellets were then resuspended in 200 μL of 0.25 mM Tris-HCl (pH 7.4). The cell associated TNFα was prepared by freezing the cell suspension in dry ice/ethanol and thawing at 37° C. three times with Vortexing in-between freeze-thaw cycles. Each cycle was 4-5 min apart.
To determine the long-term effects of phosphazole compound T70241 on TNFα production after a single treatment, THP-1 cells were pre-incubated with T70241, washed and resuspended in drug free medium. The xanthine analog HWA-3138 was used as a control.

Another data set relates to IL-1β. Kind of data set: Inhibition of IL-1β production in LPS-stimulated THP-1 cells (ELISA). The format is cell-based, human. Conditions: Homo sapiens; Table 2; LPS-stimulated THP-1, 6 h post-stimulation; read-out: IC50 IL-1β in THP-1 cells. Here is the method:
as §1
as §2, with “58] […]” for “58]”
THP-1 cells were cultured and IL-1β inhibition assays were conducted as described for TNFα in Example 46, except a commercially available IL-1β assay kit, obtained from R and D Systems, Minneapolis, Minn., was used instead of the TNFα kit.
With reference now to FIG. 8, for each concentration of T70241 tested, the membrane bound IL-1β was separated from the IL-1β found free in the culture medium at 6 hours post-LPS stimulation as described in Example 46 for TNFα, and the percent inhibition of each fraction was graphed.
In general terms: In an ELISA, binding on a coated surface is turned into a signal by an enzyme label.

In data set [2] the test system is adenosine deaminase (ADA). Kind of data set: Enzymatic hydrolysis by adenosine deaminase. The class given is in vitro ADME, calf. Conditions: 25° C. Here is the method: Adenosine deaminase (ADA, adenosine aminohydrolase, EC 3.5.4.4, SIGMA) from calf intestinal mucosa was prepared to give a stock of 1 mg/mL (250-280 units/mL) in pH 7.4, 0.01 M phosphate buffer. The relative rates of hydrolysis of selected compounds by ADA and characterization of the products was carried as follows. […] Fifty-microliter aliquots were taken at time intervals and hydrolysis was quenched by mixing with 0.45 mL of distilled water and then the diluted sample was heated at 95° C. for 6 min to ensure enxyme deactivation. The decrease in substrate concentration and the formation of the products was followed over time by UV-spectroscopic analysis. Adenosine was used as a control in this experiment and one unit is defined as the amount of ADA that hydrolyzes 1.0 μmol of adenosine/min at 25° C.

The test system of data set [3] is TNFα. Conditions: by inhibition of PDE activity; cited from earlier work.
The test system of a further data set is HCMV (Town strain). Kind of data set: HCMV plaque reduction (CPE) assay in MRC-5 cells. The class given is cell-based, human cytomegalovirus. The settings on record: Human betaherpesvirus 5, MRC5; Table 4; read-out: IC50 HCMV. Here is the method: The adenine analog phosphazole (compound T70241) was assayed for antiviral activity using a HCMV plaque reduction assay, in accordance with known methods such as that described in U.S. Pat. No. 5,446,045.
(§3) Cell Culture. Vero (African Green Monkey kidney cells) and MRC-5 (diploid Human Embryonic Lung fibroblasts) cells were obtained from the American Type Culture Collection (ATCC) and were grown in minimal essential medium (MEM) with Earl's salts and glutamine (GIBCO BRL, Life Technologies, Inc.) with 10% heat inactivated fetal bovine serum (GIBCO BRL) and penicillin (100 μg/mL)/streptomycin (100 μg/mL).
CMV Cytopathic Effect (CPE) Assay. Assays were performed essentially as described by Lewis et al. (111), which report is incorporated herein by reference. MRC-5 cells (100,000 cells/well) were seeded in 24-well plates overnight. Medium was then removed and wells were rinsed once with 250 μL of 2% FCS-MEM before adding 40-50 pfu of HCMV (Town strain) to each well. After 2 hours of virus adsorption, the medium was removed and the cells were rinsed once with 2% FCS-MEM. Varying concentrations of the phosphazole compound in the culture medium (1 mL) was then added to appropriate wells and plates were incubated for 5-6 days at 37° C. in a humidified 5% CO2 atmosphere. Each concentration was tested in duplicate wells.
The extent of the plaque reduction was quantitated by removing the media and adding 200 μL of 0.1% crystal violet in 20% methanol to all wells. The crystal violet was then removed after 10 min staining at room temperature by rinsing in the sink with tap water and the plates dried overnight. The plaques were then counted using a Nikon inverted microscope.

Data set [4] can be described thus: Cytotoxicity on growing MRC-5 cells (MTS). The settings on record: human, mrc-5 cells; Table 4; 50% inhibition of logphase growing cells; read-out: TC50 Growing MRC-5. The class given is cell-based, human. Here is the method: as §3
(§4) Cytotoxicity Analysis. The cytotoxicity of the compound was assayed using few the CellTiter 96™ Aqueous Non-Radioactive Cell Proliferation (MTS) Assay (Promega). Briefly, viable cell number was determined by trypan blue staining and cells (MRC-5 and Vero) were resuspended in minimal essential medium (MEM) supplemented with 10% FBS (GIBCO). Eighty microliters of cell suspension (1.7×10^4 cells/well) was dispensed onto a 96-well microtiter plates. At this time 20 μL of drug (or control) was added to appropriate wells. Each concentration was assayed in quadruplicate. The plates were incubated at 37° C. in a humidified 5% CO2 atmosphere for 4 days and MTS assay was performed according to the manufacturer's instructions. The average absorbence of the sample was graphed for each concentration and the data obtained was used to calculate TC50 (the concentration necessary to give one-half maximum growth) for each compound.

A short description of data set [5]: Cytotoxicity on static MRC-5 cells. The format is cell-based. The settings on record: human, Table 4, 50% cell death (static cells), read-out: TC50 Static MRC-5. Here is the method: as §3, §4
Data set [6] can be described thus: Cytotoxicity on growing Vero cells (MTS). Conditions: african green monkey, Table 4, 50% inhibition of logphase growing cells, read-out: TC50 Growing Vero. The format is cell-based. Here is the method: as §3, §4
Data set [7] in a line: Cytotoxicity on static Vero cells. The class given is cell-based. The settings on record: african green monkey, Table 4, 50% cell death (static cells), read-out: TC50 Static Vero. Here is the method:
as §3, §4

The test system of the next data set is herpesviruses. The settings on record: cited from earlier work.
In the next data set the test system is normal cells. The settings on record: relative to antiviral concentrations; cited from earlier work.
The subject of data set [8] is bone marrow progenitor cells. The settings on record: cited from earlier work.
The conditions of data set [9]: cited from earlier work.
The subject of another data set is vaccinia virus. The settings on record: in culture; cited from earlier work.
The subject of data set [10] is vesicular stomatitis virus. Conditions: in culture; cited from earlier work.
A further data set deals with coxsackie B4 virus. Conditions: in culture; cited from earlier work.
Data set [11] concerns murine leukemia (L1210) cells. The settings on record: in culture; cited from earlier work.
In data set [12] the test system is murine mammary carcinoma (FM3) cells. The settings on record: in culture; cited from earlier work.
Data set [13] deals with human B-lymphoblast (Raji) cells. Conditions: in culture; cited from earlier work.
Data set [14] has as its system human T-lymphoblast (Molt-4F) cells. The settings on record: in culture; cited from earlier work.

Take `Nc1ncnc2c1ncn2[C@@H]1O[C@H](CO)[C@@H](O)[C@H]1O` [Adenosine, reference compound]: the IC50 was 100 µg/mL (≈ 374 µM) in the data set with TNFα [1] and > 250 µg/mL with IL-1β. Besides, the “rate of hydrolysis by ADA” value in [2] is reported as 1.0 pmole/unit per min. In addition, the “suppression of TNFα production” value in the data set with TNFα [3] is on record as “suppression of TNFα production”.

On to `Nc1nc(O)c2ncn(COC(CO)CO)c2n1` [DHPG, ganciclovir, reference compound], for which the IC50 in the data set with HCMV (Town strain) was found to be 3.5 µg/mL (≈ 13.7 µM). Moreover, the CC50 at 96 h in [4], in data set [5], in data set [6] and in data set [7] was > 250 µg/mL each time. In addition, the “activity against herpesviruses” value in the data set with herpesviruses was “potent inhibitor of most human and animal herpes viruses in culture”. Moreover, in the data set on normal cells, the “concentration needed to inhibit growth of normal cells” value is reported as “much higher concentrations are needed to inhibit cell growth of normal cells”. Moreover, the “toxicity to bone marrow progenitor cells” value in [8] is listed as “toxic to bone marrow progenitor cells in culture”. Also, the “clinical toxicity” value in data set [9] (human, in vivo) is “most clinical toxicity is myelosuppression”.

Regarding `CCOP(=O)(OCC)c1nc2c(Cl)ncnc2n1[C@@H]1O[C@H](CO)[C@@H](O)[C@H]1O` [compound 1, Diethyl 6-chloro-9-(β-D-ribofuranosyl)purine-8-phosphate], the “activity against vaccinia virus” value in the data set on vaccinia virus was “significant activity”. In addition, the “activity against vesicular stomatitis virus” value in [10] was “significant activity”. Further, the “activity against coxsackie B4 virus” value in the data set with coxsackie B4 virus is on record as “significant activity”. Also, the “inhibition of proliferation of L1210” value in data set [11] is listed as “inhibitory”. Besides, the “inhibition of proliferation of FM3” value in [12] was “inhibitory”. For the same compound, the “inhibition of proliferation of Raji” value in [13] is given as “inhibitory”. Moreover, the “inhibition of proliferation of Molt-4F” value in data set [14] is given as “inhibitory”.

As to `O=C(O)P(=O)(O)O` [foscarnet], the “activity against herpesviruses” value in the data set on herpesviruses is on record as “observed activity against all known human herpesviruses”. In addition, the “clinical toxicity” value in data set [9] (patients) was “nephrotoxicity, hypocalcemia, and seizures in some patients”.
